Measured values published in US20140018347A1, “BENZOXAZEPINES AS INHIBITORS OF mTOR AND METHODS OF THEIR USE AND MANUFACTURE” (Exelixis, Inc., priority 2010, published 2014).

How the values were obtained:
mTORC1 = mTORC1 (Homo sapiens, UniProt P42345); assay: mTOR/GbL/Raptor (mTORC1) ELISA Assay; format: biochemical; conditions: phosphorylation of 4E-BP1; 0.2 nM mTORC1, 10 μM ATP
Procedure, shortened: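 Kinase reaction: 0.2 nM mTORC1, 10 μM ATP, 50 nM NHis-4E-BP1 in Hepes pH 7.2 with 10 mM MnCl2, 120 min at ambient temperature. Phospho-4E-BP1 was captured on Ni-chelate plates and detected by anti-phospho-4E-BP1 rabbit IgG, HRP secondary and chemiluminescence.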

PI3Kalpha = PI3Kalpha (Homo sapiens, UniProt P42336); assay: PI3K Biochemical Assays (PI3K-alpha assay); conditions: ATP consumption, luciferase-luciferin; 1 μM ATP, 10 μM PIP2
Procedure, shortened: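 Recombinant PI3Kα 3 nM, ATP 1 μM and PIP2 10 μM in Tris pH 7.5 with 10 mM MgCl2, ~2 h at ambient temperature. ATP depletion (held to 40-60%) was read by Kinase-Glo luminescence for IC50. Other isoforms: β 10 nM, δ 4 nM; γ 40 nM, 1 h, 5 mM MgCl2.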

Sequence of PI3Kalpha (P42336 whole entry, canonical isoform): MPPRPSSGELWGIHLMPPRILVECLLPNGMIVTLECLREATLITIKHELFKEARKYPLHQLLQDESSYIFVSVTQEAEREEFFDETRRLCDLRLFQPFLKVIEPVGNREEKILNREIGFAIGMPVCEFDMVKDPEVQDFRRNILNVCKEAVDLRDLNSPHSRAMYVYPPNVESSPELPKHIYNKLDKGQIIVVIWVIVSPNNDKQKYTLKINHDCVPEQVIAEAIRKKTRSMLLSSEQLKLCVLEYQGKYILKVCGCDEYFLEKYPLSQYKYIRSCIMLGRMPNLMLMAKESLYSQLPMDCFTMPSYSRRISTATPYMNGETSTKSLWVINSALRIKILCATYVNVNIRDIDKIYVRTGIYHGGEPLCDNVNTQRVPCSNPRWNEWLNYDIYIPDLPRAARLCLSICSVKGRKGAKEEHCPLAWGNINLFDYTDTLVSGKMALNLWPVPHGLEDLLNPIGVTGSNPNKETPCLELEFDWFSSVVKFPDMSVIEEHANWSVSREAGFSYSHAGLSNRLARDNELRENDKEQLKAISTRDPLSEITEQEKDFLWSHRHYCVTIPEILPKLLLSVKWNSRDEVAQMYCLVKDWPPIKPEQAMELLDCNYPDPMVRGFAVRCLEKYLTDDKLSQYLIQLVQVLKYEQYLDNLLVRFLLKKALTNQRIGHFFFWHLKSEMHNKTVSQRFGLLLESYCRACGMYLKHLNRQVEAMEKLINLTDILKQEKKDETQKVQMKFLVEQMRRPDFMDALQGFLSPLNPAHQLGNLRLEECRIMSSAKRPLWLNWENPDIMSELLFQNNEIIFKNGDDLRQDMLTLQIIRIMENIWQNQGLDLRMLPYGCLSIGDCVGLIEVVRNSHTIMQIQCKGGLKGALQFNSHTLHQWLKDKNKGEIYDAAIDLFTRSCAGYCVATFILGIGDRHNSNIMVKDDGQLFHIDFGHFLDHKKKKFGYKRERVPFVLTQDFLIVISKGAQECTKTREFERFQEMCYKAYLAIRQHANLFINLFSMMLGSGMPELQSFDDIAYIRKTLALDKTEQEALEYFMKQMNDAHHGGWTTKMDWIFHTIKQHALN
Sequence of PI3Kalpha (P27986 whole entry partner, canonical isoform): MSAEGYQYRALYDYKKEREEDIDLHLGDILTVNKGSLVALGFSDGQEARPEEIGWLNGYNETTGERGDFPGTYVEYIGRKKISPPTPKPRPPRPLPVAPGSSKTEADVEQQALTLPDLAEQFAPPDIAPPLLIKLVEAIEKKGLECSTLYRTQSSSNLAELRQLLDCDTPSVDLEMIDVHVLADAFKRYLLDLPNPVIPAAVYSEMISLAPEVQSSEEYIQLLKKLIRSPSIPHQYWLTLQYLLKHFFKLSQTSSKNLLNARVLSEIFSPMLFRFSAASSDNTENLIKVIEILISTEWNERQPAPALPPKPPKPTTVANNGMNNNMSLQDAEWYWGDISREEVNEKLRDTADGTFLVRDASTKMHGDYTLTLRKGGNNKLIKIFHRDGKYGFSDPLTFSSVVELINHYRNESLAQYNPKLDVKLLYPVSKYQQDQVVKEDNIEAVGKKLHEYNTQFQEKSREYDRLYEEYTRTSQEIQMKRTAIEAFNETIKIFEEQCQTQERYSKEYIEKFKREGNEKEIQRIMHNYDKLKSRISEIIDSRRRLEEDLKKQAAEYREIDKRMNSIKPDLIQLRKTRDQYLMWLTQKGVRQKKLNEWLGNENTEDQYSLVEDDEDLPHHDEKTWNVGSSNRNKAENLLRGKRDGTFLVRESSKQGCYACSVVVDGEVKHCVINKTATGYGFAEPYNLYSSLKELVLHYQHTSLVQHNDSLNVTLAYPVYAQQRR

How did the IC50 (mTORC1) turn out when `CCc1c(C)nc(CN(C)C)nc1N1CCOc2ccc(-c3cnc4sc(N)nc4c3)cc2C1` [Compound 1, 6-(4-{2-[(dimethylamino)methyl]-5-ethyl-6-methylpyrimidin-4-yl)-2,3,4,5-tetrahydro-1,4-benzoxazepin-7-yl)[1,3]thiazolo[5,4-b]pyridin-2-amine] was run?
The IC50 was 100 to 500 nM.

What about the IC50 (PI3Kalpha) of the same molecule?
The IC50 was at most 100 nM.

What does the source list for `Nc1cc(Cl)nc(N2CCOc3ccc(-c4cnc5sc(N)nc5c4)cc3C2)n1` [Compound 50, 6-[4-(4-amino-6-chloropyrimidin-2-yl)-2,3,4,5-tetrahydro-1,4-benzoxazepin-7-yl][1,3]thiazolo[5,4-b]pyridin-2-amine]?
IC50 (mTORC1): 100 to 500 nM; IC50 (PI3Kalpha): 100 to 500 nM

`COc1ccc2c(N3CCOc4ccc(-c5cnc6sc(N)nc6c5)cc4C3)nc(C)nc2c1` [Compound 26, 6-{4-[2-methyl-7-(methyloxy)quinazolin-4-yl]-2,3,4,5-tetrahydro-1,4-benzoxazepin-7-yl}[1,3]thiazolo[5,4-b]pyridin-2-amine] was tested. Which IC50 (mTORC1) did it give?
The IC50 was 100 to 500 nM.

And the IC50 (PI3Kalpha)?
Its IC50 is at most 100 nM.

How did the IC50 (mTORC1) turn out when `Nc1nc2cc(-c3ccc4c(c3)CN(c3ccnc([N+](=O)[O-])c3)CCO4)cnc2s1` [Compound 93, 6-[4-(2-nitropyridin-4-yl)-2,3,4,5-tetrahydro-1,4-benzoxazepin-7-yl][1,3]thiazolo[5,4-b]pyridin-2-amine] was run?
Its IC50 is 100 to 500 nM.

What about the IC50 (PI3Kalpha) of the same molecule?
The IC50 was 500 to 2500 nM.

With `CCc1c(C)nc(N)nc1N1CCOc2ccc(-c3cnc4sc(N)nc4c3)cc2C1` [Compound 6, 6-[4-(2-amino-5-ethyl-6-methylpyrimidin-4-yl)-2,3,4,5-tetrahydro-1,4-benzoxazepin-7-yl][1,3]thiazolo[5,4-b]pyridin-2-amine] as the molecule, how does the IC50 (mTORC1) read?
Its IC50 is at most 100 nM.

What about the IC50 (PI3Kalpha) of the same molecule?
The IC50 was at most 100 nM.

With `CCCc1cnc(N)nc1N1CCOc2ccc(-c3cnc4sc(N)nc4c3)cc2C1` [Compound 33, 6-[4-(2-amino-5-propylpyrimidin-4-yl)-2,3,4,5-tetrahydro-1,4-benzoxazepin-7-yl][1,3]thiazolo[5,4-b]pyridin-2-amine] as the molecule, how does the IC50 (mTORC1) read?
Its IC50 is at most 100 nM.

And the IC50 (PI3Kalpha)?
The IC50 was at most 100 nM.

What does the source list for `Nc1cc(N2CCOc3ccc(-c4cnc5sc(N)nc5c4)cc3C2)nc(N)n1` [Compound 80, 6-[7-(2-amino[1,3]thiazolo[5,4-b]pyridin-6-yl)-2,3-dihydro-1,4-benzoxazepin-4(5H)-yl]pyrimidine-2,4-diamine]?
IC50 (mTORC1): 100 to 500 nM; IC50 (PI3Kalpha): ≤ 100 nM

What does the source list for `Cc1nc(CNS(C)(=O)=O)nc(N2CCOc3ccc(-c4cnc5sc(N)nc5c4)cc3C2)c1C(C)C` [Compound 21, N-({4-[7-(2-amino[1,3]thiazolo[5,4-b]pyridin-6-yl)-2,3-dihydro-1,4-benzoxazepin-4(5H)-yl]-6-methyl-5-(1-methylethyl)pyrimidin-2-yl}methyl)methanesulfonamide]?
IC50 (mTORC1): ≤ 100 nM; IC50 (PI3Kalpha): ≤ 100 nM

Which results are given for `CC[C@H]1CCc2c(nc(N)nc2N2CCOc3ccc(-c4cnc5sc(N)nc5c4)cc3C2)C1` [Compound 56, (7S)-4-[7-(2-amino[1,3]thiazolo[5,4-b]pyridin-6-yl)-2,3-dihydro-1,4-benzoxazepin-4(5H)-yl]-7-ethyl-5,6,7,8-tetrahydroquinazolin-2-amine]?
IC50 (mTORC1): ≤ 100 nM; IC50 (PI3Kalpha): ≤ 100 nM

What does the source list for `Cc1c(N)nc(N)nc1N1CCOc2ccc(-c3cnc4sc(N)nc4c3)cc2C1` [Compound 73, 6-[7-(2-amino[1,3]thiazolo[5,4-b]pyridin-6-yl)-2,3-dihydro-1,4-benzoxazepin-4(5H)-yl]-5-methylpyrimidine-2,4-diamine]?
IC50 (mTORC1): 100 to 500 nM; IC50 (PI3Kalpha): ≤ 100 nM

`Nc1nc2c(c(N3CCOc4ccc(-c5cnc6sc(N)nc6c5)cc4C3)n1)CCC2` [Compound 15, 6-[4-(2-amino-6,7-dihydro-5H-cyclopenta[d]pyrimidin-4-yl)-2,3,4,5-tetrahydro-1,4-benzoxazepin-7-yl][1,3]thiazolo[5,4-b]pyridin-2-amine] was tested. Which IC50 (mTORC1) did it give?
Its IC50 is at most 100 nM.

And the IC50 (PI3Kalpha)?
The IC50 was at most 100 nM.

How did the IC50 (mTORC1) turn out when `CC(C)c1c(Br)nc(N)nc1N1CCOc2ccc(-c3cnc4sc(N)nc4c3)cc2C1` [Compound 19, 6-{4-[2-amino-6-bromo-5-(1-methylethyl)pyrimidin-4-yl]-2,3,4,5-tetrahydro-1,4-benzoxazepin-7-yl}[1,3]thiazolo[5,4-b]pyridin-2-amine] was run?
Its IC50 is at most 100 nM.

And the IC50 (PI3Kalpha)?
The IC50 was at most 100 nM.

Which results are given for `CC1CC(C)(C)Cc2c1nc(N)nc2N1CCOc2ccc(-c3cnc4sc(N)nc4c3)cc2C1` (stereo not drawn) [Compound 57, 4-[7-(2-amino[1,3]thiazolo[5,4-b]pyridin-6-yl)-2,3-dihydro-1,4-benzoxazepin-4(5H)-yl]-6,6,8-trimethyl-5,6,7,8-tetrahydroquinazolin-2-amine]?
IC50 (mTORC1): ≤ 100 nM; IC50 (PI3Kalpha): ≤ 100 nM

For `CCCc1c(C)nc(CN(C)C)nc1N1CCOc2ccc(-c3cnc4sc(N)nc4c3)cc2C1` [Compound 69, 6-(4-{2-[(dimethylamino)methyl]-6-methyl-5-propylpyrimidin-4-yl}-1,3,4,5-tetrahydro-1,4-benzoxazepin-7-yl)[1,3]thiazolo[5,4-b]pyridin-2-amine], which IC50 (mTORC1) is on record?
The IC50 was at most 100 nM.

And the IC50 (PI3Kalpha)?
Its IC50 is at most 100 nM.

With `C=CCc1c(C)nc(N)nc1N1CCOc2ccc(-c3cnc4sc(N)nc4c3)cc2C1` [Compound 83, 6-[4-(2-amino-6-methyl-5-prop-2-en-1-ylpyrimidin-4-yl)-2,3,4,5-tetrahydro-1,4-benzoxazepin-7-yl][1,3]thiazoloJ-[5,4-b]pyridin-2-amine] as the molecule, how does the IC50 (mTORC1) read?
Its IC50 is at most 100 nM.

What about the IC50 (PI3Kalpha) of the same molecule?
The IC50 was at most 100 nM.

Which results are given for `CCOC(=O)c1cnc(N)nc1N1CCOc2ccc(-c3cnc4sc(N)nc4c3)cc2C1` [Compound 48, ethyl 2-amino-4-[7-(2-amino[1,3]thiazolo[5,4-b]pyridin-6-yl)-2,3-dihydro-1,4-benzoxazepin-4(5H)-yl]pyrimidine-5-carboxylate]?
IC50 (mTORC1): 100 to 500 nM; IC50 (PI3Kalpha): 100 to 500 nM

What does the source list for `CCCc1c(C)nc(N)nc1N1CCOc2ccc(-c3cnc4sc(N)nc4c3)cc2C1` [Compound 32]?
IC50 (mTORC1): ≤ 100 nM; IC50 (PI3Kalpha): ≤ 100 nM

`Cc1nc(CN(C)C)nc(N2CCOc3ccc(-c4cnc5sc(N)nc5c4)cc3C2)c1F` [Compound 66, 6-(4-{2-[(dimethylamino)methyl]-5-fluoro-6-methylpyrimidin-4-yl)-1,3,4,5-tetrahydro-1,4-benzoxazepin-7-yl)[1,3]thiazolo[5,4-b]pyridin-2-amine] was tested. Which IC50 (mTORC1) did it give?
Its IC50 is 500 to 2500 nM.

What about the IC50 (PI3Kalpha) of the same molecule?
Its IC50 is 100 to 500 nM.

What does the source list for `Nc1nc(Cl)cc(N2CCOc3ccc(-c4cnc5sc(N)nc5c4)cc3C2)n1` [Compound 16, 6-[4-(2-amino-6-chloropyrimidin-4-yl)-2,3,4,5-tetrahydro-1,4-benzoxazepin-7-yl][1,3]thiazolo[5,4-b]pyridin-2-amine]?
IC50 (mTORC1): 100 to 500 nM; IC50 (PI3Kalpha): 100 to 500 nM

`CC1(C)Cc2nc(N3CCOc4ccc(-c5cnc6sc(N)nc6c5)cc4C3)sc2C(=O)N1` [Compound 85, 2-[7-(2-amino[1,3]thiazolo[5,4-b]pyridin-6-yl)-23-dihydro-1,4-benzoxazepin-4(5H)-yl]-6,6-dimethyl-6,7-dihydro[1,3]thiazolo[5,4-c]pyridin-4(5H)-one] was tested. Which IC50 (mTORC1) did it give?
Its IC50 is at most 100 nM.

What about the IC50 (PI3Kalpha) of the same molecule?
The IC50 was 100 to 500 nM.

Which results are given for `C=C(C)c1c(C)nc(N)nc1N1CCOc2ccc(-c3cnc4sc(N)nc4c3)cc2C1` [Compound 30, 6-{4-[2-amino-6-methyl-5-(1-methylethenyl)pyrimidin-4-yl]-2,3,4,5-tetrahydro-1,4-benzoxazepin-7-yl}[1,3]thiazolo[5,4-b]pyridin-2-amine]?
IC50 (mTORC1): ≤ 100 nM; IC50 (PI3Kalpha): ≤ 100 nM

How did the IC50 (mTORC1) turn out when `CC#Cc1c(C)nc(N)nc1N1CCOc2ccc(-c3cnc4sc(N)nc4c3)cc2C1` [Compound 77, 6-[4-(2-amino-6-methyl-5-prop-1-yn-1-ylpyrimidin-4-yl)-2,3,4,5-tetrahydro-1,4-benzoxazepin-7-yl][1,3]thiazolo[5,4-b]pyridin-2-amine] was run?
The IC50 was at most 100 nM.

What about the IC50 (PI3Kalpha) of the same molecule?
Its IC50 is at most 100 nM.

`C#Cc1c(C)nc(N)nc1N1CCOc2ccc(-c3cnc4sc(N)nc4c3)cc2C1` [Compound 74, 6-[4-(2-amino-5-ethynyl-6-methylpyrimidin-4-yl)-2,3,4,5-tetrahydro-1,4-benzoxazepin-7-yl][1,3]thiazolo[5,4-b]pyridin-2-amine] was tested. Which IC50 (mTORC1) did it give?
The IC50 was at most 100 nM.

And the IC50 (PI3Kalpha)?
The IC50 was at most 100 nM.

For `Cc1nc(CN(C)C)nc(N2CCOc3ccc(-c4cnc5sc(N)nc5c4)cc3C2)c1CC1CC1` [Compound 27, 6-(4-{5-(cyclopropylmethyl)-2-[(dimethylamino)methyl]-6-methylpyrimidin-4-yl}-2,3,4,5-tetrahydro-1,4-benzoxazepin-7-yl)[1,3]thiazolo[5,4-b]pyridin-2-amine], which IC50 (mTORC1) is on record?
The IC50 was at most 100 nM.

And the IC50 (PI3Kalpha)?
The IC50 was at most 100 nM.
